Several values for one entry are separate records, joined by “and”; a condition that tells them apart may be missing. Identical values can stand only once. Like-named read-outs stand apart in the source and are kept apart here.
Key:
[1] = system: HepG2 cells; assay: LDH cytotoxicity assay on HepG2 cells; format: cell-based; settings: LDH test; 24 h
Procedure: To assess the cytotoxicity properties of BPPB, the lactate dehydrogenase (LDH) cytotoxicity assay (Abcam, Cat#ab102526) was performed, following manufacturer’s protocol, as previously described. This time, the increasing concentrations of BPPB were in the range 0.4–85.3 µM.
In this study, the cytotoxicity profile of BPPB was assessed in both immortalized human liver cells (HepG2) cells, as in our previous works, and in transformed African green monkey kidney fibroblast cells (Cos-7), as reported in a recent paper. Specifically, we evaluated the cytotoxicity of BPPB by carrying out both the MTT proliferation assay and the lactate dehydrogenase (LHD) cytotoxicity assay, which measures the LDH activity as an indicator of cell death. Both cell lines were exposed for 24 h to increasing concentrations of BPPB (0.4–85.3 µM). Growth inhibition/death were determined by the MTT test, while cell cytotoxicity was determined by LDH assay, with respect to untreated control cells. Results are reported as bar graphs in Figure 8 and as dispersion graphs in Figures S13 and S14 in Supplementary Materials (Section S2).

[2] = system: HTLA-230 human stage-IV NB cells; assay: Cell viability assay (CellTiter 96 AQueous One Solution) on HTLA-230 NB cells; format: cell-based; settings: for viability at 0.5 µM: series 0.5–50 µM
Source text: HTLA-230 human stage-IV NB cells were kindly provided by Dr. L. Raffaghello (G. Gaslini Institute, Genoa, Italy). The HTLA-ER cells were selected by treating HTLA-230 parental cells for six months with increasing concentrations of etoposide, as previously reported. Both cell populations were maintained in RPMI 1640 medium (Euroclone Spa, Pavia, Italy) supplemented with 10% fetal bovine serum (FBS, Euroclone Spa, Pavia, Italy), 1% L-glutamine (Euroclone Spa, Pavia, Italy), and 1% Penicillin/Streptomicin (Euroclone Spa, Pavia, Italy) and grown in standard conditions (37 °C humidified incubator with 5% CO2).
To determine the cytotoxic effects of BPPB, in vitro time- and dose-dependent experiments were carried out. Cells were first treated for 24, 48, and 72 h, with increasing concentrations (0.5–50 µM) of the compound. In a subsequent series of the experiments, cells were treated for 24, 48, and 72 h with increasing concentration of BPPB in the range of 0.1–2 µM. […] Cell cultures were carefully monitored before and during the experiments to ensure optimal cell density.
Cell viability was determined by using the CellTiter 96® AQueous One Solution Cell Proliferation Assay (Promega, Madison, WI, USA), as previously described. Briefly, cells (10,000 cells/well) were seeded into 96-well plates (Corning Incorporated, Corning, NY, USA) and then treated. Next, cells were incubated with 20 µL of CellTiter, and the absorbance at 490 nm was recorded using a microplate reader (EL-808, BIO-TEK Instruments Inc., Winooski, VT, USA). IC50 was evaluated by GraphPad Prism 5.4.2 Software (GraphPad Software, Boston, MA, USA).
Results are expressed as the means ± S.D. of at least four independent experiments in which six different wells were analyzed every time for each experimental condition. The statistical significance of differences was determined by two-way analysis of variances (ANOVA) followed by Tukey’s multicomparison test using GraphPad Prism 8.0 (GraphPad Software v8.0, San Diego, CA, USA); p < 0.05 was considered statistically significant. Asterisks or other indicators (see Figures captions) indicate the following p-value ranges: p > 0.05 no symbols, * = p < 0.05, ** = p < 0.01, *** = p < 0.001, **** = p < 0.0001.

[3] = system: HepG2 cells; design: method as in earlier work; settings: MTT test; Table S1, previously assessed characteristics; cited from earlier work
[4] = system: red blood cells (RBCs); assay: In vitro hemolytic toxicity on red blood cells; format: cell-based, human; settings: for Hemolysis (hemolytic ratio): 60 min; for IC50: 60 min at 37 °C, 0.1–50 µM, blood of four healthy donors, read-out: IC50 RBCs (concentration needed to cause 50% hemolysis)
Procedure: (§1) The hemolytic ratio was evaluated, as recently reported with slight changes, in EDTA-blood samples from four healthy donors from the San Martino Hospital Transfusion Centre. Specifically, red blood cells (RBCs) were isolated by diluting 0.2 mL of blood with 0.4 mL of phosphate-buffered saline (PBS) and centrifuging it for 5 min at 10,000× g. The pellet, consisting of RBCs, was washed 5 times with 1.0 mL PBS and finally resuspended with 2.0 mL PBS. The assay was carried out on 0.1 mL of resuspended RBCs added to 0.1 mL of H2O (positive control), 0.1 mL of PBS (negative control), or 0.1 mL of the different concentrations (0.1–50 µM) of the compound to be tested (BPPB). The samples were incubated for 60 min at 37 °C, and at the end, they were centrifuged for 5 min at 10,000× g. Finally, 0.1 mL of supernatant was transferred to a transparent 96-well plate and measured by a spectrophotometer (Dynex Technologies; Chantilly, VA, U.S.A.) at 595 nm. The hemolytic ratio was calculated using the following formula:Hemolytic ratio (%) = (OD TEST − OD NEGATIVE CONTROL)/(OD POSITIVE CONTROL − OD NEGATIVE CONTROL) × 100
(§2) The hemolytic ratio percentage (%) caused by BPPB was assessed as recently reported with slight changes. In particular, EDTA-blood samples from four healthy donors were exposed to increasing concentrations of BPPB (0.1–50 µM).

[5] = In vitro hemolytic toxicity on red blood cells; format: cell-based, human; settings: human
Procedure: as §1, §2

Structure (SMILES): c1ccc([P+](CCCCCCCCCCCC[P+](c2ccccc2)(c2ccccc2)c2ccccc2)(c2ccccc2)c2ccccc2)cc1 [BPPB, 1,1-(1,12-dodecanediyl)bis [1,1, 1]-triphenylphosphonium di-bromide]
- Concentrations with a safety profile toward HepG2 [1]: ≤ 8.5 µM
- Cell viability HTLA-230 ([2]; 24 h, concentration at which hemolysis was inexistent (concentration not stated)): 18.2%
- IC50 ([2]; 24 h exposure, refined concentration range 0.1–2 µM): 240 nM and 238 nM
- Viable cells, both NB cell populations ([2]; 24 h treatment, HTLA-230 and HTLA-ER, concentrations leaving more than 98% of RBCs alive): 14–18%
- IC50 ([2]; Homo sapiens, HTLA-230, 24 h, 24 h exposure, concentration range 0.5–50 µM): 738 ± 546 nM
- IC50 ([2]; Homo sapiens, HTLA-230, 24 h, 24 h exposure, refined concentration range 0.1–2 µM): 200 nM
- IC50 ([2]; Homo sapiens, HTLA-230, 48 h, 48 h exposure, concentration range 0.5–50 µM): 590 ± 445 nM
- IC50 ([2]; Homo sapiens, HTLA-230, 48 h, 48 h exposure, refined concentration range 0.1–2 µM): 196 ± 21.1 nM
- IC50 ([2]; Homo sapiens, HTLA-230, 72 h, 72 h exposure, concentration range 0.5–50 µM): 203 ± 178 nM
- IC50 ([2]; Homo sapiens, HTLA-230, 72 h, 72 h exposure, refined concentration range 0.1–2 µM): 228 ± 17.6 nM
- viability at 0.25 µM ([2]; Homo sapiens, HTLA-230, 0.25 µM, 24 h, series 0.1–2 µM): 53.1%
- viability at 0.5 µM ([2]; Homo sapiens, HTLA-230, 24 h): 46%
- viability at 0.5 µM ([2]; Homo sapiens, HTLA-230, 48 h): 41.6%
- viability at 0.5 µM ([2]; Homo sapiens, HTLA-230, 72 h): 21.7%
- viability at 5 µM ([2]; Homo sapiens, HTLA-230, concentrations ≥ 5 µM, 24, 48, 72 h): 16 to 18%
- Selectivity indexes (SIs), all non-tumoral cells vs both NB cell populations ([2]; after 24 h treatments, MRC-5, Cos-7, HepG2, RBCs vs HTLA-230 and HTLA-ER): 2.5–74.6
- IC50 HepG2 cell [3]: 11.31 ± 1.54 µg/mL
- Hemolysis (hemolytic ratio) ([4]; 10 µM): 25.1%
- Hemolysis (hemolytic ratio) ([4]; 20 µM): 50.8%
- IC50 [4]: 14900 nM
- IC50 ([4]; Homo sapiens, Erythrocyte, 1 h): 14900 nM
- Selectivity index (SI) = IC50 RBCs / IC50 HTLA-230 ([4]; NB cells 24 h exposure): > 74
- Selectivity index (SI) = IC50 RBCs / IC50 HTLA-ER ([4]; NB cells 24 h exposure): 13.56
- selectivity ratio at 60 min ([5]; NB cells 24 h exposure, read-out: Selectivity index (SI) = IC50 RBCs / IC50 HTLA-ER): > 10
- viability at 60 min ([5]; isolated red blood cells, concentration at which both NB cell populations were fully exterminated, read-out: RBC viability): 98.4%
